The structures appear in SMILES notation. Where two headings read alike, the source gives them in different places.

One data set concerns ddY mice. The data set is described as follows: Acute toxicity. Format: in vivo. The note with it: mouse, oral, 600 mg/kg, observed for 2 weeks. The source says:
EXPERIMENT 9: ACUTE TOXICITY

Data set [1] concerns paw edema induced by carageenin. The data set is described as follows: Inhibitory activity on paw edema induced by carageenin. As to conditions: rat, oral, 10 mg/kg, 3 hours after carageenin. Format: in vivo, Wistar rats. Here is the method: EXPERIMENT 4: INHIBITORY ACTIVITY ON PAW EDEMA INDUCED BY CARAGEENIN
Wistar rats (body weight: 110-130 g) starved overnight were orally administered with a test drug suspended in 0.5% CMC-Na, and after one hour, 0.1 ml of 1% carageenin solution (picnin-A, Zushi Kagaku) was subcutaneously injected into the right hind leg paw of each rat. Three hours later, the volume of the paw was determined by means of a plethysmometer (Model 7150, Ugo Basile Co.,Ltd.) and the rate of edema was evaluated in comparison with the volume of the paw before the carageenin injection as 100%. Inhibitory rate of each drug-treated group against edema formation was calculated in comparison with the solvent-treated control.

The test system of data set [2] is auricle edema induced by oxazolone. The data set is described as follows: Effect on auricle edema induced by oxazolone (delayed allergy). As to conditions: mouse, oral, 10 mg/kg × 2 (30 minutes before, 6 hours after), 24 hours. It is filed as in vivo, ICR mice. Here is the method:
EXPERIMENT 6: EFFECT ON AURICLE EDEMA INDUCED BY OXAZOLONE (DELAYED ALLERGY)
[…]. The mice were sensitized by the application of 0.1 ml of 0.5% oxazolone in ethanol to shaven abdominal skin. Five days later, inflammation was induced by applying 10 μl of 0.5% oxazolone in acetone to front and back surfaces Of the right auricle. After 24 hours, the thicknesses of the left and right auricles were measured by a dial gauge, and the rate of edema of the right auricle was calculated in comparison with the left auricle (normal). A test drug was suspended in 0.5% CMC--Na and orally administered twice to each mouse , i.e., 30 minutes before and 6 hours after the inflammation-inducing treatment. Inhibitory rate of each drug-treated group against edema was calculated in comparison with the solvent-treated control.

For a further data set, the target named is T1, 5-lipoxygenase (Cavia porcellus, UniProt A0A286X958).
T1 construct: crude enzyme fraction prepared from peritoneal exudated cells of guinea pigs; endogenous in cells; host or cells: guinea pig peritoneal exudate cells (induced by intraperitoneal casein), crude enzyme fraction
T1 sequence (A0A286X958 1-674): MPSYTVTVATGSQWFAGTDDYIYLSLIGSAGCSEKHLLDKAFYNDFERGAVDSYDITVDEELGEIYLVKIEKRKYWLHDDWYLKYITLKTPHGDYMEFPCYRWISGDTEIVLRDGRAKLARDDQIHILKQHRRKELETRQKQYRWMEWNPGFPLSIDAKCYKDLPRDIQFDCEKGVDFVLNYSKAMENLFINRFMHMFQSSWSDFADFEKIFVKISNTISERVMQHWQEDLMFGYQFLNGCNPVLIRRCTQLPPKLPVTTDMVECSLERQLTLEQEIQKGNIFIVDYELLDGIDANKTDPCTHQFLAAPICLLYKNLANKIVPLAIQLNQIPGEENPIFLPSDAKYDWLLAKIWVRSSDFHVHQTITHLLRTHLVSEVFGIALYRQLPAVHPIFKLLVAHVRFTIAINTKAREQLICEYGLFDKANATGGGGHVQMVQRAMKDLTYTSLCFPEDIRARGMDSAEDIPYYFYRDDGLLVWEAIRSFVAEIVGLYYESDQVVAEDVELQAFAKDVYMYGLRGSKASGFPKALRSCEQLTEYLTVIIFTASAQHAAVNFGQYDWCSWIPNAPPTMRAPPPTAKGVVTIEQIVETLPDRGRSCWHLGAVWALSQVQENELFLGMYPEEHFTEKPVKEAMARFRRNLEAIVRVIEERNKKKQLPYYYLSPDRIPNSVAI
The data set is described as follows: Inhibitory activity on 5-lipoxygenase. Format: biochemical, guinea pigs. The note with it: 5-HETE generation, 20 μM 14C-arachidonic acid, pH 7.4, 37° C., 10 minutes. On the procedure:
EXPERIMENT 2: INHIBITORY ACTIVITY ON 5-LIPOXYGENASE
5-Lipoxygenase activity was determined according to the method described by Ochi et al., J. Biol. Chem.,258, p. 5754, 1983 using a crude enzyme fraction prepared from peritoneal exudated cells of guinea pigs which were induced by intraperitoneal injection of 2% case in solution. A solution of a test drug was mixed with a reaction solution (2mM ATP, 1 mM glutathione,and the enzyme fraction in 50 mM phosphate buffer, PH 7.4) and the mixture was pre-incubated at 37° C. for 5 minutes. Calcium chloride (1 mM) and 20 μM^14 C-arachidonic acid were added to the mixture, and then the mixture was subjected to a reaction at 37° C. for 10 minutes. After the completion of the reaction, the product was immediately extracted, dissolved in chloroform/methanol (2:1), and developed by thin-layer chromatography. Radioactivity of the 5-hydroxyeicosatetraenoic acid (5-HETE) fraction was measured using a liquid scintillation counter. Inhibitory rate of each drug-treated group against 5-HETE generation was obtained in comparison with the solvent-treated control, and IC50 was calculated according to the probit method.

Data set [3] deals with platelet aggregation (platelet rich plasma). The data set is described as follows: Inhibitory activity on platelet aggregation. It is filed as cell-based, Japanese native white domestic rabbits. The note with it: Oryctolagus cuniculus, rabbit PRP, 37° C. Here is the method:
EXPERIMENT 8: INHIBITORY ACTIVITY ON PLATELET AGGREGATION
Blood of Japanese native white domestic rabbits was taken into a plastic centrifugal tube added with 1/10 in volume of 3.8% sodium citrate solution, and then, platelet rich plasma (PRP) containing 5 to 6×10^8 /ml platelets was obtained by centrifugation for 10 minutes. under 120×G. To 450 μl of the PRP, 25 μl of a solution containing the test drug (Compound 109) dissolved at a desired concentration was added.

Data set [4] has as its system auricle edema induced by arachidonic acid. The data set is described as follows: Inhibitory activity on auricle edema induced by arachidonic acid. It is filed as in vivo, ddY mice. As to conditions: mouse, oral, 30 mg/kg, 1 hour after arachidonic acid. On the procedure:
EXPERIMENT 5: INHIBITORY ACTIVITY ON AURICLE EDEMA INDUCED BY ARACHIDONIC ACID
[…]. Dermatol. 82, p. 367, 1984. The mice were orally administered with a test drug suspended in 0 5% CMC-Na, and after one hour, 10 μl of arachidonic acid in acetone (50 mg/ml) were applied to front and back surfaces of the left auricles of each mouse. One hours later, the thicknesses of the left and right auricles were measured by means of a dial gauge, and the rate of edema of the left auricle was calculated in comparison with the right auricle (normal). Inhibitory rate of each drug-treated group against edema formation was calculated in comparison with the solvent-treated control.

A further data set relates to granuloma formation. The data set is described as follows: Inhibitory activity on granuloma formation (proliferative inflammation). It is filed as in vivo, Wistar rats. As to conditions: rat, oral, 10 mg/kg every day for 8 days. On the procedure:
EXPERIMENT 7: INHIBITORY ACTIVITY ON GRANULOMA FORMATION (PROLIFERATIVE INFLAMMATION)
Evaluation was carried out by using Wistar rats (120-140 g) according to the method described by Fujiyoshi et al., Nihon Yakurigaku Zasshi (Folia Pharmacologica Japonica), 87, p. 379, 1986. Back skin of the rat was lightly incised under anesthesia with pentobarbital, and filter paper discs for antibiotic assay (57 mg, 13.0.phi., Whatman) sterilized by autoclave were embedded under the skin at the both axillae. 0.1 ml of a mixture of streptomycin and penicillin G (each 1 mg/ml) was administered dropwise to the incised site and the incised skin was sutured. From the day of the disc embedment, a test drug suspended in 0.5% CMC--Na was orally administered to the rat every day for 8 days. The rat was sacrificed at the day of last administration and granuloma including the filter paper was extirpated from the circumferential tissue and dried at 110° C. overnight. The dry weight of the granuloma was measured and inhibitory rate of each drug-treated group against granulation formation was calculated in comparison with the solvent-treated control.

In data set [5] the test system is lipid peroxidation (crude homogenate prepared from brain tissues of Wistar rats). The data set is described as follows: Inhibitory activity on lipid peroxidation (anti-oxidation activity). As to conditions: rat brain homogenate, 37° C., 30 minutes; malondialdehyde, 532 nm. It is filed as biochemical. On the procedure: EXPERIMENT 1: INHIBITORY ACTIVITY ON LIPID PEROXIDATION (ANTI-OXIDATION ACTIVITY)
The captioned activity was evaluated according to the method described by Kakihana et al., Nihon Yakurigaku Zasshi (Folia Pharmacologica Japonica), 80, p. 225, 1982. To a 1 ml of a crude homogenate prepared from brain tissues of Wistar rats, 10 μl of a solution of test drug in dimethyl sulfoxide was added, and after pre-incubation under ice-cooling for 10 minutes, the mixture was subjected to a reaction at 37° C. for 30 minutes. The reaction was stopped by adding 200 μl of 35% perchloric acid to the mixture and then the mixture was centrifuged. To a 1 ml of the supernatant obtained, 0.5 ml of 0.5% thiobarbituric acid was added and the mixture was heated under a boiling water bath for 15 minutes. The mixture was cooled to room temperature and absorbance of the mixture at 532 nm was measured. The inhibitory rate was obtained using the amount of malondialdehyde generated by the solvent-treated control, which equals to 100%, and 50% median inhibitory concentration (IC50) was calculated according to the probit method as indexes of anti-oxidation activity.

A word on the IC50: it is the concentration at which inhibition is half-maximal. Regarding `CCc1ccc(-c2cc(-c3ccc(OC)cc3)c(-c3ccc(OC)cc3)o2)n1CC(=O)O` [Compound 109, 2,3-di-(4-methoxyphenyl)-5-(1-carboxymethyl-5-ethyl-2-pyrrolyl)furan], the “Dead Mice/Total Mice” value with ddY mice is reported as 0/5. Moreover, the figures for the “Inhibition on Edema (%)” value in data set [1] and in data set [2] were 49.5% and 46.8%, respectively. For the same molecule, the IC50 against 5-lipoxygenase is 0.85 µM; in data set [3] (arachidonic acid (250 μM), read-out: IC50 against platelet aggregation induced by arachidonic acid), 1.5 µM; in data set [3] (collagen (5 μg/ml), read-out: IC50 against platelet aggregation induced by collagen) it was 13.3 µM.
On to `COc1ccc(-c2cc(-c3cc(C(C)C)cn3CC(=O)O)oc2-c2ccc(OC)cc2)cc1` [Compound 188], for which, in the data set on ddY mice, the “Dead Mice/Total Mice” value is on record as 4/5. The “Inhibition on Edema (%)” value in data set [4] stood at 55.0%; in data set [2], 44.2%. The “Inhibition on Granuloma (%)” value in the data set on granuloma formation is 29.7%. The IC50 against 5-lipoxygenase is 1.11 µM; in data set [5], 2.41 µM.

The values above are taken from patent publication US5321041A, “Diphenylpyrrolylfuran derivatives” (Nihon Iyakuhin Kogyo Co., Ltd., priority 1992, dated 1994).
